Test results reported in patent publication US11572341B2, “Biguanide compound and use thereof” (ImmunoMet Therapeutics Inc., priority 2014, dated 2023).
Read-outs that look alike come from different tables or passages of the source.

What was measured:
AMPKa [pT172] = assay: AMPKa activation [pT172] in MCF7 cell; type: cell-based
HCT116 cells = assay: Inhibitory effect against cancer cell proliferation (MTT); type: cell-based, human; conditions: HCT116, MTT, 48 hours, read-out: IC50 (uM) @ HCT116
Experimental: The formazane crystals thus formed were dissolved using dimethyl sulfoxide (DMSO) and absorbance of the solution was measured at 560 nm. After culturing for 48 hours, […] synthesized in Examples was indicated as cell viability (%) according to each treated concentration.

| SMILES | AMPKa activation [pT172] (Unit/ml) @ MCF7 cell (AMPKa [pT172]; 5 uM) [Unit/ml] | AMPKa activation [pT172] (Unit/ml) @ MCF7 cell (AMPKa [pT172]; 10 uM) [Unit/ml] | AMPKa activation [pT172] (Unit/ml) @ MCF7 cell (AMPKa [pT172]; 50 uM) | IC50 (HCT116 cells; Homo sapiens, HCT-116) [µM] | IC50 (HCT116 cells) [µM] |
| --- | --- | --- | --- | --- | --- |
| CC1CCN(C(=N)NC(=N)Nc2ccc(F)c(C(F)(F)F)c2)CC1.Cl [Example 54, N1-(4-methyl)piperidin-N5-(3-trifluoromethyl-4-fluoro)phenyl Biguanide Hydrochloride] | 4.9 | 8.9 | cell death | 6.7 | – |
| CC1CCN(C(=N)NC(=N)Nc2ccc(F)cc2)CC1.Cl [Example 56, N1-(4-methyl)piperidin-N5-(4-fluoro)phenyl Biguanide Hydrochloride] | 2.7 | 4.8 | 15.4 Unit/ml | 48.8 | – |
| CC1CCN(C(=N)NC(=N)Nc2ccc(C(F)(F)F)c(F)c2)CC1.Cl [Example 57, N1-(4-methyl)piperidin-N5-(3-fluoro-4-trifluoromethyl)phenyl Biguanide Hydrochloride] | 6.7 | 12.1 | cell death | 2.5 | – |
| CC1CCN(C(=N)NC(=N)Nc2ccc(Cl)c(C(F)(F)F)c2)CC1.Cl [Example 58, N1-(4-methyl)piperidin-N5-(3-trifluoromethyl-4-chloro)phenyl Biguanide Hydrochloride] | 2.5 | 5.0 | cell death | 2.3 | – |
| CC1CCN(C(=N)NC(=N)Nc2ccc(OC(F)(F)F)c(F)c2)CC1.Cl [Example 59, N1-(4-methyl)piperidin-N5-(3-fluoro-4-trifluoromethoxy)phenyl Biguanide Hydrochloride] | 9.8 | 13.3 | cell death | 2.3 | – |
| CC1CCN(C(=N)NC(=N)NCc2cccc(C(F)(F)F)c2)CC1.Cl [Example 60, N1-(4-methyl)piperidin-N5-(3-trifluoromethyl)benzyl Biguanide Hydrochloride] | 4.6 | 7.8 | 20.9 Unit/ml | 15.4 | – |
| CC1CCN(C(=N)NC(=N)NCc2ccc(C(F)(F)F)cc2)CC1.Cl [Example 61, N1 (4-methyl)piperidin-N5-(4-trifluoromethyl)benzyl Biguanide Hydrochloride] | 6.4 | 11.8 | 12.3 Unit/ml | 12.6 | – |
| CC1CC(C)CN(C(=N)NC(=N)Nc2ccc(OC(F)(F)F)cc2)C1.Cl (stereo not shown) [Example 62, N1-(3,5-dimethyl)piperidin-N5-(4-trifluoromethoxy)phenyl Biguanide Hydrochloride] | 8.5 | 26.6 | cell death | 2.8 | – |
| CC1CC(C)CN(C(=N)NC(=N)Nc2ccc(F)cc2)C1.Cl (stereo not shown) [Example 64, N1-(3,5-dimethyl)piperidin-N5=(4-fluoro)phenyl Biguanide Hydrochloride] | 2.2 | 4.4 | 31.4 Unit/ml | 36.1 | – |
| CC1CC(C)CN(C(=N)NC(=N)Nc2ccc(F)c(C(F)(F)F)c2)C1.Cl (stereo not shown) [Example 65, N1-(3,5-dimethyl)piperidin-N5-(3-trifluoromethyl-4-fluoro)phenyl Biguanide Hydrochloride] | 15.0 | 20.1 | cell death | 2.5 | – |
| Cl.N=C(NC(=N)N1CC=CC1)Nc1cccnc1 [Example 66, N1-2,5-dihydro-1H-pyrrol-N5-pyridin-3-yl Biguanide Hydrochloride] | 3.3 | 3.7 | 4.1 Unit/ml | > 100 | – |
| Cl.N=C(NC(=N)N1CC=CC1)N1CC=CC1 [Example 67, N1-2,5-dihydro-1H-pyrrol-N5-2,5-dihydro-1H-pyrrole Biguanide Hydrochloride] | 3.2 | 2.9 | 4.8 Unit/ml | 147 | – |
| Cl.N=C(NC(=N)N1CC=CCC1)N1CC=CCC1 [Example 68, N1-1,2,3,6-tetrahydropyridin-N5-1,2,3,6-tetrahydropyridine Biguanide Hydrochloride] | 4.2 | 4.4 | 4.4 Unit/ml | > 100 | – |
| CC1CCN(C(=N)NC(=N)Nc2ccc(CCN)cc2)CC1.Cl [Example 69, N1-(4-methyl)piperidin-N5-(4-aminoethyl)phenyl Biguanide Hydrochloride] | 5.6 | 4.7 | 5.3 Unit/ml | > 100 | – |
| CC(=O)c1ccc(NC(=N)NC(=N)N2CCCC2)cc1.Cl [Example 70, N1-pyrrolidin-N5-(4-acetyl)phenyl Biguanide Hydrochloride] | 3.5 | 4.0 | 5.4 Unit/ml | > 100 | – |
| Cl.N=C(NC(=N)N1CCCCC1)Nc1ccc(N2CCOCC2)cc1 [Example 71, N1-piperidin-N5-(4-morpholin-4-yl)phenyl Biguanide Hydrochloride] | 3.8 | 4.3 | 5.8 Unit/ml | > 100 | – |
| COc1ccc(NC(=N)NC(=N)N2CCCCC2)cc1.Cl [Example 73, N1-piperidin-N5-(4-methoxy)phenyl Biguanide Hydrochloride] | 3.9 | 4.5 | 9.1 Unit/ml | > 100 | – |
| CCCc1ccccc1NC(=N)NC(=N)N1CCCCC1.Cl [Example 74, N1-piperidin-N5-(2-propyl)phenyl Biguanide Hydrochloride] | 4.9 | 5.3 | 8.3 Unit/ml | 48.3 | – |
| Cl.N=C(NC(=N)N1CCCC1)Nc1ccccc1C(F)(F)F [Example 75, N1-pyrrolidin-N5-(2-trifluoromethyl)phenyl Biguanide Hydrochloride] | 3.5 | 3.6 | 5.3 Unit/ml | – | > 100 |
| Cl.N=C(NC(=N)N1CCCC1)Nc1cc(C(F)(F)F)ccc1Cl [Example 76, N1-pyrrolidin-N5-(2-chloro-5-trifluoromethyl)phenyl Biguanide Hydrochloride] | 4.5 | 4.7 | 8.8 Unit/ml | 42.1 | – |
| Cl.N=C(NC(=N)N1CCCC1)Nc1ccc(F)c(Cl)c1 [Example 77, N1-pyrrolidin-N5-(3-chloro-4-fluoro)phenyl Biguanide Hydrochloride] | 4.5 | 5.7 | 13.9 Unit/ml | 50.6 | – |
| Cl.N=C(NC(=N)N1CCCC1)Nc1cccc(Cl)c1Cl [Example 78, N1-pyrrolidin-N5-(2,3-dichloro)phenyl Biguanide Hydrochloride] | 3.4 | 3.4 | 3.8 Unit/ml | 58.3 | – |
| Cl.N=C(NC(=N)N1CCCC1)Nc1ccc(SC(F)(F)F)cc1 [Example 79, N1-pyrrolidin-N5-(4-trifluoromethylthio)phenyl Biguanide Hydrochloride] | 7.8 | 11.7 | cell death | 7.9 | – |
| Cl.N=C(N)N/C(=N/CCc1ccccc1)Nc1ccccc1 [Example 94, N1-phenyl-N2-phenethyl Biguanide Hydrochloride] | – | – | 9.0 Unit/ml | 105 | – |
| Cl.N=C(N)N/C(=N/c1ccc(Br)cc1)NCCc1ccccc1 [Example 95, N1-phenethvl-N2-(4-bromo)phenyl Biguanide Hydrochloride] | 4.9 | 6.8 | 23.6 Unit/ml | 14.1 | – |
| Cl.N=C(N)N/C(=N/C1CCCCCC1)NCc1ccc(Cl)cc1 [Example 98, N1-(4-chloro)benzyl-N2-cycloheptyl Biguanide Hydrochloride] | 7.2 | 9.6 | 37.5 Unit/ml | 49.2 | – |
| Cl.N=C(NC(N)=NCCc1cccs1)N1CCCCC1 [Example 99, N1-piperidin-N2-(2-thiophen-2-yl)ethyl Biguanide Hydrochloride] | 4.0 | 2.9 | 3.6 Unit/ml | – | > 100 |
